Tests used:
CD73 = target: T1, CD73 (Homo sapiens, UniProt P21589); assay: LC/MS Based Assay for Measuring CD73 Activity in Human Serum; assay type: biochemical; parameters: from tissue; host or cells: normal human serum; settings: concentrations corrected with the fraction unbound, read-out: EC50, inhibition of CD73 activity in human serum
T1 sequence (P21589 27-549): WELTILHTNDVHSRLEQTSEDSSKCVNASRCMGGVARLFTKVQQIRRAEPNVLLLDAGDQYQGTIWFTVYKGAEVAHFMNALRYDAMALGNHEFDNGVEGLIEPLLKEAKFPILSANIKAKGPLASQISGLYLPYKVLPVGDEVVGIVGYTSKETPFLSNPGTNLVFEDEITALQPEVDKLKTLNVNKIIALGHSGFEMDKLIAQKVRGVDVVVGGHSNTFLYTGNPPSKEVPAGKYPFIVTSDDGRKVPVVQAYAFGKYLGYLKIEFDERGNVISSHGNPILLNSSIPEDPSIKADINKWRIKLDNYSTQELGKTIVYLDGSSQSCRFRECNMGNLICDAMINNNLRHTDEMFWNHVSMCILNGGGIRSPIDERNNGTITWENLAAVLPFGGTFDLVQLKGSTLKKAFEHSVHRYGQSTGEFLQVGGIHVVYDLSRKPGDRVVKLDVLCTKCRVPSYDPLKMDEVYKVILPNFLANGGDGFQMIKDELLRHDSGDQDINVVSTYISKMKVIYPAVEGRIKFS
Procedure: Fresh normal human blood is centrifuged at 1,500 g for 15 minutes at room temperature, and the upper fraction containing serum is collected. […] After incubation on ice for 60 min, […] (50 uM) is added to each well in the plate, and the plate is incubated at room temperature for 15 min. The plate is then placed on dry ice with addition of 200 uL/well of 17.3 TCA followed by shaking at 26 fps for 3 min with a plate-shaking machine (Qiagen). The plate is then centrifuged at 2940 g for 20 min at 4° C. […] After further centrifugation at 2940 g for 20 min at 4° C., 200 ul/well of the supernatant is used for analysis of ^13C10-^15N5-adenosine, ^13C10-^15N5-inosine and ^15N5-hypoxanthine by LC/MS as described above. For EC50 calculations, the concentrations of the CD73 inhibitor in the serum are corrected with the fraction unbound (%) derived from in silico models or experimentally.

human PBMCs or CD4 cells = assay: T Cell Suppression Assay (rescue of adenosine-mediated inhibition of T cell proliferation); assay type: cell-based; settings: for Rescue of T cell proliferation (%): AMP in medium, 68-70 hr
Procedure: Cells are placed in a 37° C. water bath for 10 min to pre-activate T cells. […] To test compounds using PBMCs, test compounds at various concentrations are prepared in cell normal growth media (125 μL) containing 400-600 μM AMP. […] Treated cells are cultured at 37° C., 5% CO2 for 68-70 hr.
Medium (100 μl) containing CD4 cells is transferred to and filtered through AcroPrep plates to another plate via centrifugation at 1500 g for 2 hr. Filtered medium (50 μl/well) is mixed with the same volume of 80% methanol, 1% NH4OH, and internal standards (250 ng/mL ^13C5-AMP and 250 ng/mL ^13C5-Adenosine) for LC-MS analysis of metabolites.
Treated PBMCs or CD4 cells are collected and stained for Flow Cytometry to quantify T cell proliferation.
Flow data are acquired by BD FACS Verse. Each fluorescence channel is appropriately compensated. The data are processed on FloJo ver. 7.6.5 with the following gating strategy: lymphocytes gated on FSC vs SSC dot plot; viable cells of lymphocytes gated on SSC vs Zombie Aqua dot plot; CD3 cells of viable lymphocytes gated on APC-Cy7 vs Zombie Aqua dot plot1; CD4 cell and CD8 cells of CD3 cells gated on APC vs Pacific Blue dot plot; CD4 and CD8 cells further gated on APC vs CFSE(FITC) and Pacific Blue vs CFSE(FITC) dot plots. Proliferation of CD4 and CD8 cells is analyzed by a proliferation tool.

murine CD73 = target: T2, murine CD73 (Mus musculus, UniProt Q61503); assay: Ex Vivo Target Inhibition Assay (mouse whole blood after oral dosing); assay type: in vivo; settings: read-out: Inhibition of AMP conversion to adenosine, Inhibition (%)
T2 construct: from tissue; host or cells: mouse whole blood (heparin) from orally dosed animals
T2 sequence (Q61503 29-551): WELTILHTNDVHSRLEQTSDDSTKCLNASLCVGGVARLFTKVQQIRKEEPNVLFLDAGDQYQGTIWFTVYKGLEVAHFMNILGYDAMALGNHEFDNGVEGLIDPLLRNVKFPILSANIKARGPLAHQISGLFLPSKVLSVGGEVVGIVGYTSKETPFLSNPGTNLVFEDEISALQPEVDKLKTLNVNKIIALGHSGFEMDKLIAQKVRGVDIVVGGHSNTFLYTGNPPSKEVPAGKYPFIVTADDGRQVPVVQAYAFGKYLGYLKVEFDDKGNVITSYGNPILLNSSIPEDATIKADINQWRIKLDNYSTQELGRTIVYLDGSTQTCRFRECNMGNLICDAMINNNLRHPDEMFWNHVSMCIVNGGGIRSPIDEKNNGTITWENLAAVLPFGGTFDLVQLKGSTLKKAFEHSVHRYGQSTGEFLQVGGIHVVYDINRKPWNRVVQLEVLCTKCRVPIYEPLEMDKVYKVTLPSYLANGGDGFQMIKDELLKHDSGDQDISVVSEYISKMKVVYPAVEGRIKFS
Procedure: The animals (6/group) are dosed orally with each compound formulated in 20% HPBCD (2-hydroxypropyl-β-cyclodextrin), pH 2 after tumors reach to approximately 400 mm^3.

CD4^+ T cells = assay: Cytokine Analysis (ELISA); assay type: cell-based, human
Procedure: CFSE labeled human PBMCs (600,000 cells/mL) or CD4 cells (500,000 cells/mL) are mixed with Dynabeads® Human T-Activator CD3/CD28 (Gibco, cat #11131D) at a ratio of 1:1 of cell/beads and human IL-2 (60 IU/ml, Roche, cat #: 11011456001). Cells are placed in a 37° C. water bath for 10 min to pre-activate T cells. PBMCs (125 μl/well) or CD4 cells (100 μl/well) are transferred to a 96 well plate (Costar 3799, Corning Inc.). To test compounds using PBMCs, test compounds at various concentrations are prepared in cell normal growth media (125 μL) containing 400-600 μM AMP. To test compounds using CD4 cells, test compounds at various concentrations are prepared in cell normal growth media (100 μL) containing 200-250 μM AMP. Treated cells are cultured at 37° C., 5% CO2 for 68-70 hr.
Medium (160 μl) containing treated PBMCs is transferred to a plate and the remaining medium used for cytokine assay is transferred to AcroPrep 96 plates (AcroPrep 96 Filter plate, Omega 3K NTRL 350 ul well, Pall Life Science Cat #8033) for preparation of samples for LC-MS analysis of metabolites.
Culture medium from treated PBMCs is diluted at 1:7.5, 1:2.5 and 1:50 with 1× ELISA/ELISPOT Diluent from cytokine ELISA kits and analyzed for TNFα using Human TNF alpha ELISA Ready-SET-GO! Kit (eBioscience cat #88-7346-22), IL-1β using Human IL-1β ELISA ready-SET-GO! Kit (2nd generation) (eBioscience, cat #88-7261-22) and IFNγ using Human IFN gamma ELISA ready-SET-GO! Kit (eBioscience, cat #88-7316-22) based manufacturer's manuals.

CC(C)[C@H]1C[C@@H]1c1cc(-c2c[nH]c(=O)[nH]c2=O)nnc1Cl (relative stereo) [Example 8, 5-[6-Chloro-5-[rel-(1S,2R)-2-isopropylcyclopropyl]pyridazin-3-yl]-1H-pyrimidine-2,4-dione]
EC50 (CD73): 0.179 µM

O=c1[nH]cc(-c2cc([C@H]3CC3(F)F)c(Cl)nn2)c(=O)[nH]1 (single isomer, unassigned) [Example 9]
EC50 (CD73): 0.297 µM

Cc1nnc(-c2c[nH]c(=O)[nH]c2=O)cc1[C@H]1C[C@@H]1C(C)C [Example 2, 5-[5-[(1S,2R)-2-isopropylcyclopropyl]-6-methyl-pyridazin-3-yl]-1H-pyrimidine-2,4-dione]
Adenosine (uM) in the growth medium (human PBMCs or CD4 cells; compound 0.00229 uM): 0.28 µM
Rescue of T cell proliferation (%) (human PBMCs or CD4 cells; compound 0.00229 uM): −6%
Adenosine (uM) in the growth medium (human PBMCs or CD4 cells; compound 0.00686 uM): 0.28 µM
Rescue of T cell proliferation (%) (human PBMCs or CD4 cells; compound 0.00686 uM): −3%
Adenosine (uM) in the growth medium (human PBMCs or CD4 cells; compound 0.02058 uM): 0.21 µM
Rescue of T cell proliferation (%) (human PBMCs or CD4 cells; compound 0.02058 uM): −2%
Adenosine (uM) in the growth medium (human PBMCs or CD4 cells; compound 0.06173 uM): 0.15 µM
Rescue of T cell proliferation (%) (human PBMCs or CD4 cells; compound 0.06173 uM): 37%
Adenosine (uM) in the growth medium (human PBMCs or CD4 cells; compound 0.18519 uM): 0.086 µM
Rescue of T cell proliferation (%) (human PBMCs or CD4 cells; compound 0.18519 uM): 95%
Adenosine (uM) in the growth medium (human PBMCs or CD4 cells; compound 0.55556 uM): 0.046 µM
Rescue of T cell proliferation (%) (human PBMCs or CD4 cells; compound 0.55556 uM): 104%
Adenosine (uM) in the growth medium (human PBMCs or CD4 cells; compound 1.66667 uM): 0.027 µM
Rescue of T cell proliferation (%) (human PBMCs or CD4 cells; compound 1.66667 uM): 106%
Adenosine (uM) in the growth medium (human PBMCs or CD4 cells; compound 5.00 uM): 0.017 µM
Rescue of T cell proliferation (%) (human PBMCs or CD4 cells; compound 5.00 uM): 107%
inhibition at 1 mg/kg (murine CD73; 1 mg/kg oral): -10.6%
inhibition at 2.5 mg/kg (murine CD73; 2.5 mg/kg oral): 25.2%
inhibition at 6.4 mg/kg (murine CD73; 6.4 mg/kg oral): 37%
inhibition at 16 mg/kg (murine CD73; 16 mg/kg oral): 56.5%
inhibition at 40 mg/kg (murine CD73; 40 mg/kg oral): 88.6%
inhibition at 100 mg/kg (murine CD73; 100 mg/kg oral): 94.3%
INF-γ release, INF-γ (CD4^+ T cells; compound 0.003 uM): 34.5 pg/mL
TNF-α release, TNF-α (CD4^+ T cells; compound 0.003 uM): 386.3 pg/mL
INF-γ release, INF-γ (CD4^+ T cells; compound 0.008 uM): 29.5 pg/mL
TNF-α release, TNF-α (CD4^+ T cells; compound 0.008 uM): 419.9 pg/mL
INF-γ release, INF-γ (CD4^+ T cells; compound 0.025 uM): 51.1 pg/mL
TNF-α release, TNF-α (CD4^+ T cells; compound 0.025 uM): 557.8 pg/mL
INF-γ release, INF-γ (CD4^+ T cells; compound 0.074 uM): 59.4 pg/mL
TNF-α release, TNF-α (CD4^+ T cells; compound 0.074 uM): 782.0 pg/mL
INF-γ release, INF-γ (CD4^+ T cells; compound 0.222 uM): 146.7 pg/mL
TNF-α release, TNF-α (CD4^+ T cells; compound 0.222 uM): 1265.5 pg/mL
INF-γ release, INF-γ (CD4^+ T cells; compound 2.000 uM): 99.5 pg/mL
TNF-α release, TNF-α (CD4^+ T cells; compound 2.000 uM): 1183.9 pg/mL
INF-γ release, INF-γ (CD4^+ T cells; compound 6.000 uM): 105.3 pg/mL
TNF-α release, TNF-α (CD4^+ T cells; compound 6.000 uM): 1985.5 pg/mL

O=c1[nH]cc(-c2cc([C@H]3C[C@@H]3C(F)F)c(Cl)nn2)c(=O)[nH]1 [Example 10, 5-[6-Chloro-5-[(1S,2S)-2-(difluoromethyl)cyclopropyl]pyridazin-3-yl]-1H-pyrimidine-2,4-dione]
EC50 (CD73): 0.055 µM

CC[C@H]1C[C@@H]1c1cc(-c2c[nH]c(=O)[nH]c2=O)nnc1C#N [Example 22, 6-(2,4-Dioxo-1H-pyrimidin-5-yl)-4-[(1S,2S)-2-ethylcyclopropyl]pyridazine-3-carbonitrile]
EC50 (CD73): 0.212 µM

From patent US11028074B2, “CD73 inhibitors” (Eli Lilly and Company, priority 2018, dated 2021)
